Assay: gradient 5% acetonitrile 3 min, to 50% in 2 min, to 85% in 15 min, held 3 min, 100 µL/min
Settings: column: Zorbax Extend-C18 2.1 x 50 mm; eluents: water / acetonitrile, 0.1% formic acid
Outline: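 Using water and acetonitrile that each contained 0.1% formic acid, mixtures of ~100 pure standards were separated at 100 μL/min on a Zorbax Extend-C18 column (2.1 × 50 mm, 1.8 μm). The HPLC fed a quadrupole time-of-flight mass spectrometer working in positive and negative ionization mode, with dead and dwell volumes of 40 μL and 900 μL. Data were acquired over 3 months. Retention time was read from computationally picked adduct peaks after manual inspection of each.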

| Structure (SMILES) | RP-LC retention time [s] |
| --- | --- |
| CC1CCN(CCCNC(=O)c2nnc(-c3ccc(S(=O)(=O)N4CCOCC4)cc3)o2)CC1 | 608 |
| CCOCCCNC(=O)c1ccc(OCc2nnc(C(=O)Nc3ccc(F)c(F)c3)s2)cc1 | 912 |
| CCCNC(=O)C1CCN(c2ccc(SCC(=O)Nc3ccc(C)cc3F)nn2)CC1 | 679 |
| Cc1nc(-c2nnc(NC(=O)c3cnccn3)o2)cs1 | 567 |
| Cc1cc2[nH]c(C(=O)Nc3cc(F)c(F)c(F)c3)c(CN3CCOCC3)c2s1 | 737 |
| O=C(NC1CCN(c2nnc3ccccn23)CC1)c1cc2c(s1)CCCC2 | 742 |
| Cc1cc(C)cc(NC(=O)NCC(c2cccnc2)c2cn(C)c3ccccc23)c1 (configuration not stated) | 711 |
| CC1(CNS(=O)(=O)c2ccc(F)c(Cl)c2)CCOCC1 | 861 |
| O=C1NCCc2ccc(NC(=O)C3CC(=O)N(c4ccc(Cl)cc4)C3)cc21 (configuration not stated) | 661 |
| O=C(c1ccc(CS(=O)(=O)c2cccc(C(F)(F)F)c2)o1)N1CCN(c2ccccn2)CC1 | 645 |
| Cc1ccc(C(=O)N2CC=C(C(=O)NC3CC3)CC2)cc1C | 797 |
| Cc1scc2nc(C(=O)NCc3ccc(F)cc3)nc(N3CCCC3)c12 | 561 |
| O=C(c1cc2c(s1)CCC(C(=O)N1CCN(C3CCCC3)CC1)C2)N1CCCC1 (configuration not stated) | 606 |
| Cc1ccc(CNC(=O)c2nnc(-c3ccc(S(=O)(=O)N(C)C)cc3)o2)cc1C | 947 |
| COc1cc(OC)c(NC(=O)Cn2ccc3sccc3c2=O)cc1Cl | 775 |
| O=C(Cc1cccs1)N1CCCCC1c1nncn1-c1ccccc1 (configuration not stated) | 712 |
| CC(C)c1cc(C(=O)Nc2ccc(Cl)cc2)nn1C1CCS(=O)(=O)C1 (configuration not stated) | 936 |
| CCOc1ccc(NC(=O)c2cc(C)n3nccc3n2)cc1 | 917 |
| O=S(=O)(Nc1ccc(F)cc1)c1ccccc1-c1nc(-c2ccccc2)no1 | 1140 |

| Structure (SMILES) | RP-LC retention time [s] |
| --- | --- |
| COC(=O)c1cnc(N2CCN(c3ccc(F)cc3)CC2)c2ccccc12 | 1190 |
| O=C(CSc1nc2ccccc2s1)N1CCN(C(=O)C2CC2c2ccccc2)CC1 (configuration not stated) | 867 |
| Cc1cc(C)n(CCNC(=O)c2c(F)cccc2F)n1 | 607 |
| COc1ccccc1C(=O)Nc1ccc2nc(N3CCN(C4CCCCC4)CC3)cc(C(=O)O)c2c1 | 638 |
| Cc1ccc(NC(=O)Nc2ccc3nnc(C)n3c2)cc1C | 719 |
| CCCNC(=O)C1c2ccccc2CCN1C(=O)C1CC1 (configuration not stated) | 725 |
| O=C(Cc1ccccc1Br)NC1CCN(c2cc(-c3cccs3)[nH]n2)C1 (configuration not stated) | 689 |
| O=S(=O)(Cc1ccccc1)N1CCC[C@H]1c1nc(-c2ccc(F)cc2)n[nH]1 | 819 |
| COc1ccc(OCCn2c(C(F)(F)F)nc3cc4c(cc32)OCCO4)cc1 | 985 |
| O=C(Nc1cc(F)cc(F)c1)Nc1cccc(-c2ccc(N3CCOCC3)nn2)c1 | 748 |
| Cc1cc(C)n2c(Nc3ccc(C(C)C)cc3)c(-c3cccc(Br)c3)nc2n1 | 1000 |
| CCOc1ccc(NC(=O)c2cc3oc(C)cc3n2Cc2ccc(C)cc2)cc1 | 1210 |
| Cc1ccc(N2CCN(C(=O)c3ccc(CN4CCN(C(C)C)C(=O)C4=O)cc3)CC2)cc1 | 728 |
| Cc1ccc(CNC(=O)C2CCc3nc(N4CCOCC4)ncc3C2)cc1 (configuration not stated) | 723 |
| O=C(NCc1ccc2c(c1)OCO2)C1CCN(c2cc(N3CCCCC3)ncn2)CC1 | 715 |
| COc1ccc2c(c1)C1(CCN(S(=O)(=O)c3ccc(F)cc3F)C1)C(=O)N2C (configuration not stated) | 927 |
| CCOC(=O)c1c(C)c(CCC(=O)NCc2ccc3c(c2)OCO3)c(C)n1C | 865 |
| CCc1cccc(NC(=O)c2csc(-c3cn(C)c4ncccc34)n2)c1 | 1120 |

Source: the METLIN SMRT retention time set (Domingo-Almenara et al. 2019)
